# Experimental data taken from ChEMBL document CHEMBL4390688, “Accelerating the discovery of DGAT1 inhibitors through the application of parallel medicinal chemistry (PMC)” (Bioorg Med Chem Lett, 2019).
# Legend:
# [1] = Half life in Beagle dog at 1 mg/kg, iv or 2 mg/kg, po; format: ADME, organism-based, Canis lupus familiaris; conditions: in vivo
# [2] = Mutagenicity in Salmonella typhimurium […] up to 30 to 5000 ug/plate by Ames test; format: toxicity; conditions: salmonella enterica subsp. enterica serovar typhimurium
# [3] = Oral bioavailability in Beagle dog at 2 mg/kg; format: ADME, organism-based, Canis lupus familiaris; conditions: in vivo
# [4] = Clearance in Sprague-Dawley rat at 1 mg/kg, iv and 2 mg/kg, po; format: ADME, organism-based; conditions: in vivo
# [5] = Mutagenicity in Salmonella typhimurium TA100 up to 30 to 5000 ug/plate by Ames test; format: toxicity; conditions: salmonella enterica subsp. enterica serovar typhimurium
# [6] = Cmax in Sprague-Dawley rat at 1 mg/kg, iv or 2 mg/kg, po; format: ADME, organism-based; conditions: in vivo
# [7] = Cmax in Beagle dog at 1 mg/kg, iv or 2 mg/kg, po; format: ADME, organism-based, Canis lupus familiaris; conditions: in vivo
# [8] = Mutagenicity in Salmonella typhimurium TA98 up to 30 to 5000 ug/plate by Ames test; format: toxicity; conditions: salmonella enterica subsp. enterica serovar typhimurium
# [9] = Half life in Sprague-Dawley rat at 1 mg/kg, iv or 2 mg/kg, po; format: ADME, organism-based; conditions: in vivo
# [10] = target: T1, Sterol O-acyltransferase 1 (Homo sapiens, UniProt P35610)
# T1 sequence (P35610 whole entry): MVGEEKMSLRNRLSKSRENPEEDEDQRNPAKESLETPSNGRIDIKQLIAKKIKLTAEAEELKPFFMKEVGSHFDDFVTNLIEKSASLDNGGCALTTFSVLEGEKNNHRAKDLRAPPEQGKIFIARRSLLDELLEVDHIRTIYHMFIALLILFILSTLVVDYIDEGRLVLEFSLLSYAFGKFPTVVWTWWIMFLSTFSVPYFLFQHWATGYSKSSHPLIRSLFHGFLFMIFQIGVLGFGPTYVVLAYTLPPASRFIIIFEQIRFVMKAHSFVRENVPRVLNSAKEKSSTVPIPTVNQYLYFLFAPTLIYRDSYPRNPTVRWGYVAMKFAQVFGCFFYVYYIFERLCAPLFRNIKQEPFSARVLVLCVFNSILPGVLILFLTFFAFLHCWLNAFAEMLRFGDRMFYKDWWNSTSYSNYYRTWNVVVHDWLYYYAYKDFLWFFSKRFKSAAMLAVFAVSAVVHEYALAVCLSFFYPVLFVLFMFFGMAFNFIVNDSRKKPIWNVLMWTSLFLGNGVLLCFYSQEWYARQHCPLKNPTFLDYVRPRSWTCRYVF
# Description: Inhibition of human ACAT1
# [11] = Oral bioavailability in Sprague-Dawley rat at 2 mg/kg; format: ADME, organism-based; conditions: in vivo
# [12] = target: T2, Diacylglycerol O-acyltransferase 1 (Mus musculus, UniProt Q9Z2A7)
# T2 sequence (Q9Z2A7 whole entry): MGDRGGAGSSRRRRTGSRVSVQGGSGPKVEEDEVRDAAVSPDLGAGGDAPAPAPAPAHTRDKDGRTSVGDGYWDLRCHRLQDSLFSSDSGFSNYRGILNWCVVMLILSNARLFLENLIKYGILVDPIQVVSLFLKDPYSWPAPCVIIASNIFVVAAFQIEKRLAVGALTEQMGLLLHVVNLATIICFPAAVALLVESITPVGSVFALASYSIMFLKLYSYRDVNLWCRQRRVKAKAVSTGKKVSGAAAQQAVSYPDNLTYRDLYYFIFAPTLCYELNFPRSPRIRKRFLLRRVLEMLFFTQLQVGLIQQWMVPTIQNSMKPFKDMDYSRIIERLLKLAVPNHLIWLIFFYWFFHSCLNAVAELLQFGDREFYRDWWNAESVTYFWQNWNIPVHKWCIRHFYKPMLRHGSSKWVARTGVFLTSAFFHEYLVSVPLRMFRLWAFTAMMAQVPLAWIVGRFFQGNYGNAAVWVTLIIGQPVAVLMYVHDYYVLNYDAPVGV
# Description: Inhibition of mouse DGAT1
# [13] = Dose normalized AUC in Beagle dog at 1 mg/kg, iv or 2 mg/kg, po; format: ADME, organism-based, Canis lupus familiaris; conditions: in vivo
# [14] = Dose normalized AUC in Sprague-Dawley rat at 1 mg/kg, iv or 2 mg/kg, po; format: ADME, organism-based; conditions: in vivo
# [15] = target: Adenosine receptor A2a (Homo sapiens, UniProt P29274); experiment: Activity against human A2AR assessed as inhibition of cAMP accumulation by cAMP functional assay
# [16] = Tmax in Sprague-Dawley rat at 1 mg/kg, iv or 2 mg/kg, po; format: ADME, organism-based; conditions: in vivo
# [17] = target: Voltage-gated inwardly rectifying potassium channel KCNH2 (Homo sapiens, UniProt Q12809); experiment: Inhibition of human ERG
# [18] = Clearance in Beagle dog at 1 mg/kg, iv or 2 mg/kg, po; format: ADME, organism-based, Canis lupus familiaris; conditions: in vivo
# [19] = system: Canis familiaris; experiment: Reduction in lipid excursion in dog at 1 mg/kg, po measured by lipid tolerance test relative to control; format: functional, Canis lupus familiaris; set-up: scale not given: the % may be the effect or the level left
# [20] = Tmax in Beagle dog at 1 mg/kg, iv or 2 mg/kg, po; format: ADME, organism-based, Canis lupus familiaris; conditions: in vivo
# [21] = system: Mus musculus; experiment: Reduction in lipid excursion in mouse at 3 mg/kg, po administered as single dose measured after 18 hrs by lipid tolerance test relative to control; format: functional; set-up: scale not given: the % may be the effect or the level left
# [22] = Volume of distribution at steady state in Beagle dog at 1 mg/kg, iv or 2 mg/kg, po; format: ADME, organism-based, Canis lupus familiaris; conditions: in vivo, read-out: Vdss
# [23] = Volume of distribution at steady state in Sprague-Dawley rat at 1 mg/kg, iv or 2 mg/kg, po; format: ADME, organism-based; conditions: in vivo, read-out: Vdss
# [24] = target: T3, Diacylglycerol O-acyltransferase 1 (Homo sapiens, UniProt O75907)
# T3 sequence (O75907 whole entry): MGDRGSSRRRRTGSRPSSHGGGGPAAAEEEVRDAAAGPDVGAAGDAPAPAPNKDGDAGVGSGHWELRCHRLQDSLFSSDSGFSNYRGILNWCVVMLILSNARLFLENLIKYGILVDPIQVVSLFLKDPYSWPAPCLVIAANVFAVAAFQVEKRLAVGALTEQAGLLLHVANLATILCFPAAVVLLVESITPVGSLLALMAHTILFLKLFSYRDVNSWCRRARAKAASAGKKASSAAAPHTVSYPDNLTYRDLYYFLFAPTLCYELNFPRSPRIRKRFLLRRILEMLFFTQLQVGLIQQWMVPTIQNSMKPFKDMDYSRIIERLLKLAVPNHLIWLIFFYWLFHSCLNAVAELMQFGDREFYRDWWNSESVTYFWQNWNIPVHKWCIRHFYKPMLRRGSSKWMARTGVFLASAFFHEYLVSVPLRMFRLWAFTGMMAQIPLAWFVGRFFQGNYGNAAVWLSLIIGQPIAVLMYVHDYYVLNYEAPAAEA
# Description: Inhibition of human DGAT1
# Voltage-gated inwardly rectifying potassium channel KCNH2, sequence (Q12809 whole entry): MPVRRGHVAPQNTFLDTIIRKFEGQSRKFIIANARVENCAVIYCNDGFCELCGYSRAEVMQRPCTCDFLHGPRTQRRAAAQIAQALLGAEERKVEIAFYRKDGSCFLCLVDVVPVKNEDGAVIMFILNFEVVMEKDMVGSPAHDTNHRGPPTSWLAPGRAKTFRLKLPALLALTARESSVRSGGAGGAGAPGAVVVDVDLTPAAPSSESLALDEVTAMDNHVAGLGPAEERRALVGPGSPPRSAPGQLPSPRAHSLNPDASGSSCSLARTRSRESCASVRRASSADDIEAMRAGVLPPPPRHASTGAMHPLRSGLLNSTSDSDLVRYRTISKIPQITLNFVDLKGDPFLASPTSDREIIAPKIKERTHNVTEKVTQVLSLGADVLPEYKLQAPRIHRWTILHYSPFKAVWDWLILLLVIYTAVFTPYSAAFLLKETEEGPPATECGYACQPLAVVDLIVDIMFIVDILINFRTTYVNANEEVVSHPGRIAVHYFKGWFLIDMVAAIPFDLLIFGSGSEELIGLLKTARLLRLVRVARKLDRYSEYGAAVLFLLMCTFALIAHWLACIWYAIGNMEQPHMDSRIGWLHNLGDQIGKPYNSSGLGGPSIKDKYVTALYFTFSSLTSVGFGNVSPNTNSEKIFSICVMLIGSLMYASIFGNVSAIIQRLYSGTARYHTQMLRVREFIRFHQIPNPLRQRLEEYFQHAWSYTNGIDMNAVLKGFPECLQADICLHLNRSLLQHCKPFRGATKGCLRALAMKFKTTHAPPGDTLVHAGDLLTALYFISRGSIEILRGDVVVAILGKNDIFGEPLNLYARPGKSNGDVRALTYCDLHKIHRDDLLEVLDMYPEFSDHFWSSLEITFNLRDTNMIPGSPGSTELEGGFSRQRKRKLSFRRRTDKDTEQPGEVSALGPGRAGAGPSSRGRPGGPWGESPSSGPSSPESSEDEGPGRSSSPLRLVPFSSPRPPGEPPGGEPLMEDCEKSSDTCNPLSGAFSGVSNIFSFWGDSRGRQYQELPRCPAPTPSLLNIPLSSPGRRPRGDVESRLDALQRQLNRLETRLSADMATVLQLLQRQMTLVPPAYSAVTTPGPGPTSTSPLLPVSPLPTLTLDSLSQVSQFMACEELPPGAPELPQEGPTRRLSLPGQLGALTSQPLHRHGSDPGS
# Adenosine receptor A2a, sequence (P29274 whole entry): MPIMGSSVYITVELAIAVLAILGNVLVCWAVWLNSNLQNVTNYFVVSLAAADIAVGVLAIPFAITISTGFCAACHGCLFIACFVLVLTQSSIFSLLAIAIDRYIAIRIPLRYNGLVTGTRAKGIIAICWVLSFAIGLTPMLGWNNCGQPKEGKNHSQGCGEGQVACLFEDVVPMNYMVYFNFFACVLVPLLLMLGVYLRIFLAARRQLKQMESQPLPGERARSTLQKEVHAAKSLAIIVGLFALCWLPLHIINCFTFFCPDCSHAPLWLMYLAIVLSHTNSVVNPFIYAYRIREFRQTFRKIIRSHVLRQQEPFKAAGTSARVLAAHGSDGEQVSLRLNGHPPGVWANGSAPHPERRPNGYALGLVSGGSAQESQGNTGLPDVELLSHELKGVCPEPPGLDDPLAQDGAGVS
smiles,measurement,setting,value
O=C(O)C[C@H]1CC[C@H](OC2CCN(c3ccc(-c4nc5cc(F)c(F)cc5[nH]4)cn3)CC2)CC1,half-life,[1],3.2 h
same,Activity,[2],Non-Toxic
same,bioavailability,[3],40%
same,clearance,[4],17 mL/min/kg
same,Activity,[5],Non-Toxic
same,Cmax,[6],230 nM
same,Cmax,[7],2400 nM
same,Activity,[8],Non-Toxic
same,half-life,[9],1 h
same,IC50,[10],> 10 µM
same,bioavailability,[11],17%
same,IC50,[12],0.046 µM
same,AUC/dose,[13],4.1 µM·h/mg/kg
same,AUC/dose,[14],0.3 µM·h/mg/kg
same,IC50,[15],3.48 µM
same,Tmax,[16],1 h
same,Ki,[17],40.7 µM
same,clearance,[18],3.4 mL/min/kg
same,Activity,[19],100%
same,Tmax,[20],0.5 h
same,Activity,[21],84%
same,Vd,[22],0.81 L/kg
same,Vd,[23],1.08 L/kg
same,IC50,[24],0.0065 µM
